# Assay results published in US9487561B2, “Biologically active complex and its preparation” (HAMLET PHARMA AB, priority 2010, dated 2016).
# Key:
# [1] = system: lung carcinoma, kidney carcinoma and lymphoma cells; assay: HAMLET-induced change in cell morphology (light microscopy, real-time imaging); assay type: cell-based; details: light microscopy
# Procedure: (§1) Cells were detached from cell culture flasks with versen (0.2 g EDTA in 200 ml H2O and 800 ml PBS), washed with PBS and resuspended in serum-free RPMI-1640. HAMLET dissolved in PBS was incubated with cells (0.5×10^6/ml for A549, A498 and HeLa cells; 1×10^6/ml for Jurkat) at 37° C. FCS was added after 1 hour. Cell death was quantified by trypan blue exclusion (Chroma Gesellschaft Schmid & Co) or by measuring ATP levels (ATPlite Kit, PerkinElmer, Infinite 200, Tecan). Light images were captured using the HOLOMONITOR™ M2 digital holographic microscope (Phase Holographic Imaging AB, Lund, Sweden).
# For live cell imaging, cells were pre-treated with SB202190 for 30 minutes, nuclei were stained with Hoechst 33342 (Invitrogen) and Alexa-Fluor 568-labeled HAMLET (10% labeled HAMLET, Molecular Probes) was added in serum-free medium. FCS was added after 1 hour. Fluorescence was detected with pinhole settings corresponding to 1 airy unit. The cells were kept at 37° C., 5% CO2 and examined unfixed by LSM510 DUO confocal microscopy (Carl Zeiss).
# To examine if the HAMLET-induced change in carcinoma cell morphology was modified by the channel inhibitors, lung carcinoma, kidney carcinoma and lymphoma cells were exposed to HAMLET in the presence or absence of ion channel inhibitors and examined by light microscopy (FIG. 2C).
# To determine if p38 signaling was involved in cell death, we inhibited p38α and p38β in lung and kidney carcinoma and Jurkat lymphoma cells with two small-molecule p38 inhibitors: SB202190, a highly specific pyridinyl-imidazole inhibitor; and BIRB796, a diaryl urea compound, which bears little structural similarity to SB202190 (Fabian et al., 2005, Nature Biotechnology 23: 329-336), ([…] and FIG. 12B). […] The effect of p38 inhibition on cell death was also observed by real-time confocal imaging of lung carcinoma cells exposed to fluorescently labeled HAMLET.
# [2] = system: A549 lung carcinoma cells; assay: cell death assay (trypan blue exclusion, ATP levels); assay type: cell-based, human; details: 30 minutes pretreatment, HAMLET three hours
# Procedure: as §1
# For studies with inhibitors, cells were pretreated for 30 minutes. Inhibitors used were Gadolinium chloride (GdCl3, 100 μM), Barium chloride (BaCl2, 1 mM), Ruthenium red (30 μM), tetrandrine (10 μM) and amiloride (1 mM), all from Sigma Aldrich. For p38 inhibition, SB202190 (20 μM, Sigma Aldrich) or BIRB796 (10 μM, Axon Medchem) dissolved in DMSO was used. The wells were washed twice with PBS and new medium with inhibitor was added. For RNA interference, FlexiTube siRNA Premixes against MAPK11 (SI00606053), MAPK14 (SI00300769) and All Star Negative Control siRNA (SI03650318) from Qiagen was used. A549 forward was transfected using 25 nM final siRNA concentration in 24-well plate. After 48 hours, knockdown was examined by Western blot (anti-p38, 1:1000, Cell Signaling) and RT-PCR (MAPK14, QT00079345, QIAGEN).
# To examine if functional ion channels are important for the tumoricidal activity of HAMLET, A549 lung carcinoma cells in suspension were pretreated with the channel inhibitors for 30 minutes and exposed to increasing concentrations of HAMLET for three hours.
# A549 cells were seeded to a density of 0.8-1.0×10^6 cells/well in RPMI without FCS. Different volumes of HAMLET/oleate and oleic acid solutions were added. The cells were incubated for 1 hour at 37° C. 5% CO2 for 1 hour before 50 μl of FCS (5% final concentration) were added to the wells. The cells were then further incubated for additional 2 hours before the viability were determined by trypan blue exclusion and ATP measurements.
# [3] = system: A549 lung carcinoma cells; assay: global transcriptional response, whole genome arrays (Affymetrix); assay type: cell-based, human; details: Example 5, Affymetrix U219, adjusted p-value <0.05 and log 2-foldchange of 1
# Procedure: For the microarray analysis with ion channel inhibitors, 200,000 A549 cells/well were allowed to adhere overnight on a 6-well plate. After 1 hour of HAMLET treatment, the cells were lysed and RNA was extracted using the RNeasy Mini Kit (QIAGEN). The samples were sent to AROS Applied Biotechnology (Århus, Denmark) for analysis. Data was preprocessed using RMA implemented in the free software packages “affy” as provided by R and Bioconductor (<www.r-project.org>). Differentially expressed genes were identified using empirically Bayes adjusted t-statistics and characterized using the Functional Annotation Clustering Tool in the Database for Annotation, Visualization and Integrated Discovery (DAVID), (Dennis et al., 2003 Genome Biology 4(5): P3) and Ingenuity Pathway Analysis (Ingenuity Systems). All microarray data were registered into NCBI's Gene Expression Omnibus (GEO) database (<www.ncbi.nlm.nih.gov/projects/geo>) with accession numbers GSE23772.
# To understand the mechanisms of carcinoma cell death and the contribution of ion channel activation, the global transcriptional response to HAMLET was examined, using whole genome arrays. A549 lung carcinoma cells were exposed to HAMLET (21 μM) for one hour and cells pretreated with amiloride were compared to cells in medium alone. […] An unbiased global overview of transcription was obtained by performing a hierarchical clustering of the top 3000 genes by variance and was visualized in a heatmap (FIG. 2D and FIG. 13). Genes with empirical Bayes adjusted p-values <0.05 and log 2 fold changes >1 were considered differentially expressed and were functionally characterized using Database for Annotation, Visualization and Integrated Discovery, (Dennis et al., supra, 2003) and Ingenuity Pathway Analysis.
# In total 12 RNA samples were generated (triplicate of control, oleic Acid, HAMLET, and oleate-treated) and hybridized to Affymetrix Whole Genome microarrays U219. […] For statistical analysis normalized data were linear model fitted and Empirical Bayesian analysis, coupled with p-value adjustment, performed.
# [4] = system: tumor cells; assay: ion fluxes (Ca^2+, K^+, Na^+) quantified by fluorometry; assay type: cell-based; details: for fluxes of Ca^2+, K^+ and Na^+: FIG. 1B
# Procedure: FIG. 1. […] (A, upper panels) Bright-field micrographs showing glass-adherent egg yolk vesicles before and after a 40-minute exposure to HAMLET, α-lactalbumin (HLA) or oleic acid (OA). Morphology was recorded by differential interference contrast microscopy. Scale bar […]. […] (A, lower panels) Effect of HAMLET on PMVs from lung carcinoma cells. PMVs on glass-bottom dishes were exposed to HAMLET, HLA or OA and stained with Nile red for confocal microscopy. […] As a control PMVs from healthy, differentiated cells on glass-bottom dishes were also exposed to HAMLET and stained with Nile red.
# FIG. 7. Ion Fluxes. (A) Ion fluxes induced by HAMLET (35 μM) or it constituents (35 μM All-ala α-lactalbumin or 175 μM sodium oleate) were quantified by fluorometry, as described. […] (B) The global transcriptional response to HAMLET was studied by microarray and the top 3000 genes by variance visualized in a Heatmap. […] Darker bands=high expression, lighter bands=low.
# (§2) The FLUXOR™ potassium (K^+) channel assay was performed on the TECAN infinite F200 (Tecan Group, Switzerland), according to the manufacturer's instructions (Invitrogen). Briefly, this involved FLUXOR™ loading buffer (Hank's Balanced Saline Solution, (HBSS) buffered with 20 mM HEPES and pH adjusted to 7.4 with NaOH. POWERLOAD™ concentrate and water-soluble Probenecid were used respectively to enhance the dye solubility and retention, respectively. Media were removed from the cell plates manually, and 80 μL of loading buffer containing the FLUXOR™ dye mix was applied to each well. Once inside the cell, the nonfluorescent AM ester form of the FLUXOR™ dye is cleaved by endogenous esterases into a thallium-sensitive indicator. The dye was loaded for 60 minutes at room temperature and then removed with the supernatant. After washing with dye-free PBS buffer, a final volume of 80 μL assay buffer containing water-soluble probenecid was added. Cells received one of the following channel inhibitors: 3.3 μL per well of 30 mM amiloride, 3.0 μL of 32 mM BaCl2, 1.8 μL of 5.4 mM gadolinium, 3 μL 3.2 mM tetrandrine and 2.3 μL of 2.6 mM ruthenium red, and were then incubated at room temperature (23-25° C.) for 30 minutes to allow equilibration of the test compounds. Prior to injection, stimulation buffer was prepared from the chloride-free buffer and thallium reagents provided in the kit as well as HAMLET, to achieve a final added concentrations of 2 mM free Tl+ and 35 μM HAMLET after 1:5 dilution upon injection of the stimulus buffer onto cells that had been loaded with FLUXOR™ dye.
# [5] = system: potassium channels in A549, lung carcinoma cell lines; assay: FLUXOR potassium (K^+) channel assay, Thallium (Tl^+) indicator; assay type: cell-based, human; details: HAMLET 35 μM; oleate 175 μM (5× the HAMLET concentration); peptides mixed with oleate and immediately added
# Procedure: as §2
# To distinguish Ca^2+ mobilization from intracellular stores from the influx of extracellular Ca^2+, EGTA was then added to the cell medium. […] K^+ fluxes across tumor cell membranes were subsequently quantified under the same experimental conditions, using the fluorophore FLUXOR™, which fluoresces after thallium has entered cells through K^+ channels.
# Potassium channel activity was therefore measured in A549, lung carcinoma cell lines using an indicator, which emits fluorescence signal upon entering the cells via opened potassium channels, Thallium (Tl^+) indicator (FIG. 18).
# [6] = system: tumor cells; assay: Tumoricidal Activity of Oleate-HAMLET (cell death method of Example 1); assay type: cell-based
# [7] = 35 μM All-ala α-lactalbumin or 175 μM sodium oleate, FIG. 7A
molecule,measurement,setting,value
"N.N.N.N.N.N.N.N.N.N.N.N.N.N.[Cl-].[Cl-].[Cl-].[Cl-].[Cl-].[Cl-].[O-2].[O-2].[Ru+3].[Ru+3].[Ru+4] [Ruthenium red, ammoniated ruthenium oxychloride]",effect of ion channel inhibitor on HAMLET-induced change in cell morphology,[1],did not prevent the morphological changes
same,effect of channel inhibitor on HAMLET-induced cell death,[2],no effect on viability
"CCCCCCCC/C=C\CCCCCCCC(=O)O [oleic acid, reference compound]",number of differentially expressed genes,[3],two
same,"fluxes of Ca^2+, K^+ and Na^+",[4],no effect
same,ion channel activating activity,[4]; at concentrations relevant for the HAMLET complex,did not show ion channel activating activity
"Alpha 1: α-lactalbumin peptide, residue 1-40 (EQLTKCEVFRELKDLKGYGGVSLPEWVCTTFHTSGYDTQA; UniProt P00711 20-59, looked up, fragment)",potassium channel activity (fluorescence signal),[5],did not open potassium channels
"Alpha 2: α-lactalbumin peptide, residue 81-123 (LDDDLTDDIMCVKKILDKVGINYWLAHKALCSEKLDQWLCEKL; UniProt P00711 100-142, looked up, fragment)",potassium channel activity (fluorescence signal),[5],did not open potassium channels
"Beta: α-lactalbumin peptide, residue 41-80 (IVQNNDSTEYGLFQINNKIWCKDDQNPHSSNICNISCDKF; UniProt P00711 60-99, looked up, fragment)",potassium channel activity (fluorescence signal),[5],did not open potassium channels
"α-lactalbumin: native α-lactalbumin purified from human milk (protein, UniProt P00709 20-142, looked up) Alpha-lactalbumin: KQFTKCELSQLLKDIDGYGGIALPELICTMFHTSGYDTQAIVENNESTEYGLFQISNKLWCKSSQVPQSRNICDISCDKFLDDDITDDIMCAKKILDIKGIDYWLAHKALCTEKLEQWLCEKL","fluxes of Ca^2+, K^+ and Na^+",[4],no effect
α-lactalbumin^all-ala mutant: partially unfolded α-lactalbumin with all cysteines mutated to alanine (SEQ ID NO: 1 / 2) (protein) chain 1: KQFTKAELSQLLKDIDGYGGIALPELIATMFHTSGYDTQAIVENNESTEYGLFQISNKLWAKSSQVPQSRNIADISADKFLDDDITDDIMAAKKILDIKGIDYWLAHKALATEKLEQWLAEKL chain 2: MKQFTKAELSQLLKDIDGYGGIALPELIATMFHTSGYDTQAIVENNESTEYGLFQISNKLWAKSSQVPQSRNIADISADKFLDDDITDDIMAAKKILDIKGIDYWLAHKALATEKLEQWLAEKL,K^+ fluxes,[4]; [7],comparable to HAMLET
same,Na^+ or Ca^2+ fluxes,[4]; [7],weaker
"Oleate-HAMLET: complex from EDTA treated alphalactalbumin converted on a column conditioned with sodium oleate (protein, UniProt P00709 20-142, looked up, sodium oleate complex) Alpha-lactalbumin: KQFTKCELSQLLKDIDGYGGIALPELICTMFHTSGYDTQAIVENNESTEYGLFQISNKLWCKSSQVPQSRNICDISCDKFLDDDITDDIMCAKKILDIKGIDYWLAHKALCTEKLEQWLCEKL",tumoricidal activity compared with OA complex,[6],at least as tumoricidal as the OA complex
same,Trypan blue,"[6]; 0.5 mg/ml, Control 88",1
same,ATP Activity,"[6]; 0.5 mg/ml, Control 100",27%
